The test system of assay [1] is enzyme originating from a plant belonging to the family Zingiberaceae. Description: Enzyme activity on substrates by glucosone production (substrate specificity, Km). The format is biochemical, Zingiber officinale. As to conditions: Lineweaver-Burk's plots; glucosone production at 37° C., pH 8.0. The method, then: The method for determining activity of the enzyme of the present invention is exemplified by a method in which the enzyme is reacted with a substrate fructosyl peptide, to thereby produce non-fructosyl peptide, glucosone, and hydrogen peroxide, and the amount of any one of these compounds produced through the enzyme reaction is measured. Next will be described an example method of measuring the amount of glucosone produced. Hereinafter, unless otherwise specified, the substrate employed for determining activity of the enzyme of the present invention is fructosyl valyl histidine. One unit (U) of the titer of the enzyme is defined as the amount of enzyme which produces 1 μmol glucosone in one minute as measured when the substrate is fructosyl valyl histidine. […]
To the above reaction mixture, a mixture which has been prepared in advance by mixing 200 mM acetate buffer (pH 6.0) (750 μL), 4000-u/mL glucose oxidase (Toyobo Co., Ltd.) (450 μL), 0.15% 4-aminoantipyrine (300 μL), 0.3% TOOS (Dojindo Laboratories) (300 μL), 500-u/mL peroxidase (Toyobo Co., Ltd.: Type III) (300 μL), and 1% sodium azide (300 μL) is added, followed by heating for 10 minutes at 37° C. Thereafter, absorbance is measured at 550 nm. […] Thus, the amount (in micromoles) of glucosone produced in one minute is calculated, and the obtained value is used as the activity unit of the enzyme solution. […]

In assay [2] the test system is Zingiber officinale-originating enzyme. Description: Hydrogen peroxide production, DA-64 color development. The format is biochemical. Conditions: lmM substrate, enzyme 0.3 u/mL, 30 minutes at 50° C., pH 8.0, DA-64/POD. The protocol: To a 50 mM phosphate buffer (pH 8.0) containing 0.5 mM DA-64 (product of Wako Pure Chemical Industries, Ltd.), 200-u/mL POD, 0.1% sodium azide, and lmM fructosyl valine or fructosyl peptide (SEQ ID NOs: 1 to 5) (all being final concentrations), a Zingiber officinale-originating enzyme solution was added in an amount of 0.3 u/mL (final concentration), and the mixture was treated for 30 minutes at 50° C. Absorbance at 700 nm was measured by employment of purified water as a control. Color development of DA-64 was observed (Table 1). Thus, hydrogen peroxide was confirmed to be produced.

Assay [3] has as its system enzyme originating from Zingiber officinale. Description: Measurement of fructosyl peptide through glucosone, absorbance at 550 nm. The format is biochemical. Conditions: 0 to 40 μM substrate, enzyme 1.6 u/mL (30 μL), 16 hours at 37° C. The protocol: 200 mM Phosphate buffer (pH 8.0) (150 μL), purified water (360 μL), and each of aqueous fructosyl valyl histidine solutions (60 μL) having different concentrations were mixed together so that the final fructosyl valyl histidine concentrations after reaction fell between 0 and 40 μM. The reaction was mixed with a solution of the enzyme originating from Zingiber officinale (1.6 u/mL) (30 μL), and the resultant mixture was allowed to react for 16 hours at 37° C. Subsequently, a mixture which had been prepared in advance by mixing 200 mM acetate buffer (pH 6.0) (750 μL), 4000-u/mL glucose oxidase (Toyobo Co., Ltd.) (450 μL), 0.15% 4-aminoantipyrine (300 μL), 0.3% TOOS (Dojindo Laboratories) (300 μL), 500-u/mL peroxidase (Toyobo Co., Ltd.: Type III) (300 μL), and 1% sodium azide (300 μL) was added to the reaction mixture, and the resultant mixture was treated for 10 minutes at 37° C., followed by measuring absorbance at 550 nm (FIG. 7).

Assay [4] deals with Zingiberaceae-plant-origin crude enzyme solution. Description: Defructosylation of fructosyl peptide, analysed by capillary electrophoresis. The format is biochemical, Zingiber officinale. As to conditions: reaction mixture 1, 16 hours at 37° C., pH 8.0, control peak area 32 mABU×sec. The method, then: (i) A 100 mM phosphate buffer (pH 8.0) (100 μL), a 500 μM aqueous solution (40 μL) of the N-terminal-valine fructosylated peptide having an amino acid sequence represented by SEQ ID NO: 2 (f-VHL: products of Bioquest), purified water (20 μL), and the Zingiberaceae-plant-origin crude enzyme solution (40 μL) prepared in Example 1 were mixed together, and the mixture was caused to react for 16 hours at 37° C. The reaction mixture was subjected to ultrafiltration (molecular weight: 10,000), and the filtrate was collected (reaction mixture 1). The reaction mixture 1 was analyzed through use of a capillary electrophoresis apparatus CAPI-3200 (product of Otsuka Electronics Co., Ltd) (electrophoresis buffer: 150 mM phosphate buffer (pH 2.0), voltage: 15 kV, detection wavelength: 210 nm) in terms of peak position and peak area.
As a control, purified water was added instead of the crude enzyme solution, and the resultant mixture was allowed to react under similar conditions, to thereby prepare a filtrate (control solution 1). The analysis results obtained from the control solution 1 were compared with those of the reaction mixture 1.
The fructosyl peptide employed in the enzyme reaction or control test had been mixed with corresponding non-fructosylated peptide. The presence or absence of the enzyme activity was determined through comparison of the two peaks.

Usually Km stands for the substrate concentration at which the rate is half of its maximum.

No end group written: not given here.

As to `CC(C)[C@H](NC1(CO)O[C@H](CO)[C@@H](O)[C@@H]1O)C(=O)N[C@@H](Cc1c[nH]cn1)C(=O)O` (some centres unmarked) [f-VH, fructosyl valyl histidine], the Michaelis-Menten constant (Km) in assay [1] turned out to be 1200 µM. Also, the “Absorbance at 700 nm” value in assay [2] turned out to be 735 mAbs. Moreover, the “absorbance at 550 nm against substrate concentration” value in assay [3] is reported as “increase in accordance with the increase in concentration”.

Consider “f-VHL: N-terminal-valine fructosylated peptide having an amino acid sequence represented by SEQ ID NO: 2; fructosyl tripeptide (fructosyl-Val-His-Leu)”, for which the “Absorbance at 700 nm” value in assay [2] is reported as 570 mAbs. Besides, the “peak attributed to f-VHL (capillary electrophoresis)” value in assay [4] was “does not exist”.

“f-VHLT: N-terminal-valine fructosylated tetrapeptide substrate (SEQ ID NO: 3) (fructosyl-VHLT)”: in assay [2], the “Absorbance at 700 nm” value was found to be 558 mAbs.

As to “f-VHLTP: N-terminal-valine fructosylated pentapeptide substrate (SEQ ID NO: 4) (fructosyl-VHLTP)”, the “Absorbance at 700 nm” value in assay [2] is 198 mAbs.

As for “f-VHLTPE: N-terminal-valine fructosylated hexapeptide substrate (SEQ ID NO: 5) (fructosyl-VHLTPE)”, the “Absorbance at 700 nm” value in assay [2] is reported as 223 mAbs.

Values taken from US7329520B2, “Fructosyl peptide oxidase and utilization thereof” (Daiichi Pure Chemicals Co., Ltd., priority 2002, dated 2008).
